Each structure is given as a SMILES string. Several values for one entry are separate records, joined by “and”; a condition that tells them apart may be missing. Equal entries are not always repeated. Inconclusive results are not listed.

The test system of the experiment is nude mice, LX-1 lung xenograft intrarenal, tumor weight T/C. Nature of the experiment: NCI In Vivo Anticancer Drug Screen. Data for tumor model Human Lung LX-1 Xenograft (intrarenal inoculation) in NU/NU Swiss (nude) mice. The following applies: endpoint: mean tumor weight change, higher = larger tumour. Summed up:
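Tumor-bearing mice receive test compound or vehicle; tumor size is then measured in each group. The treated value is divided by the vehicle value to give T/C.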

[1] abbreviates: dose: 1.0 mg/kg/injection, schedule: Q01DX010 (sc), vehicle: saline.
Setting [2] is: dose: 200.0 mg/kg/injection, schedule: Q04DX003 (sc), vehicle: saline with Tween-80.
Where [3] appears, read: dose: 75.0 mg/kg/injection, schedule: Q04DX003 (sc), vehicle: Klucel (hydroxypropylcellulose) (HPC).
Where [4] appears, read: dose: 150.0 mg/kg/injection, schedule: Q04DX003 (sc), vehicle: Klucel (hydroxypropylcellulose) (HPC).
The mark [5] stands for this setting: dose: 4.0 mg/kg/injection, schedule: Q04DX003 (sc), vehicle: saline.
Setting [6] is: dose: 1200.0 mg/kg/injection, schedule: Q04DX003 (sc), vehicle: saline with Tween-80.
[7] abbreviates: dose: 300.0 mg/kg/injection, schedule: Q04DX003 (sc), vehicle: saline with Tween-80.

For the molecule `C=C(C)[C@H]1CN[C@H](C(=O)O)[C@H]1CC(=O)O`, the T/C is 164 % of control (dose: 10.0 mg/kg/injection, schedule: Q04DX003 (sc), vehicle: saline) and 97 % of control (dose: 20.0 mg/kg/injection, schedule: Q04DX003 (sc), vehicle: saline).
On to `CN1CCN(CCCN2c3ccccc3Sc3ccc(C(F)(F)F)cc32)CC1`, for which the T/C is 97 % of control (dose: 6.25 mg/kg/injection, schedule: Q01DX010 (sc), vehicle: saline); 124 % of control (dose: 12.5 mg/kg/injection, schedule: Q01DX010 (sc), vehicle: saline); 63 % of control and 66 % of control and 87 % of control (dose: 100.0 mg/kg/injection, schedule: Q01DX010 (sc), vehicle: saline); 31 % of control (dose: 400.0 mg/kg/injection, schedule: Q01DX010 (sc), vehicle: saline).
Turning to `OC(C1CO1)C(O)C1CO1` (centres undefined), the T/C was 73 % of control under setting [1] and 66 % of control (dose: 2.0 mg/kg/injection, schedule: Q01DX010 (sc), vehicle: saline).
With `CC(C)[NH-].CC(C)[NH-].[Cl][Pt+2][Cl]`, the T/C (dose: 25.0 mg/kg/injection, schedule: Q01DX010 (sc), vehicle: dextrose) was 48 % of control; the T/C (dose: 50.0 mg/kg/injection, schedule: Q01DX010 (sc), vehicle: dextrose) is 50 % of control; the T/C (dose: 100.0 mg/kg/injection, schedule: Q01DX010 (sc), vehicle: dextrose) was 71 % of control.
For `COc1cc2c[n+](C)c3c4cc5c(cc4ccc3c2cc1OC)OCO5`, the T/C is 157 % of control (dose: 100.0 mg/kg/injection, schedule: Q04DX003 (sc), vehicle: saline with Tween-80); 92 % of control under setting [2]; 109 % of control (dose: 800.0 mg/kg/injection, schedule: Q04DX003 (sc), vehicle: saline with Tween-80).
Turning to `CCCCCCCCCCCCCCCC(=O)OCC1OC(n2ccc(N)nc2=O)C(O)C1O` (centres undefined), the T/C (dose: 18.75 mg/kg/injection, schedule: Q04DX003 (sc), vehicle: saline with Tween-80) was 55 % of control; the T/C (dose: 37.5 mg/kg/injection, schedule: Q04DX003 (sc), vehicle: saline with Tween-80) was 43 % of control and 60 % of control; the T/C under setting [2] was 70 % of control.
As to `O=C1c2c(O)ccc(O)c2C(=O)c2c(NCCNCCO)ccc(NCCNCCO)c21`, the T/C runs as follows: (dose: 0.5 mg/kg/injection, schedule: Q01DX010 (sc), vehicle: acid diluted with saline) 57 % of control; (dose: 0.5 mg/kg/injection, schedule: Q01DX010 (sc), vehicle: water) 47 % of control; (dose: 1.0 mg/kg/injection, schedule: Q01DX010 (sc), vehicle: acid diluted with saline) 40 % of control; (dose: 1.0 mg/kg/injection, schedule: Q01DX010 (sc), vehicle: water) 34 % of control; (dose: 2.0 mg/kg/injection, schedule: Q01DX010 (sc), vehicle: acid diluted with saline) 52 % of control; (dose: 5.0 mg/kg/injection, schedule: Q04DX003 (sc), vehicle: water) 53 % of control. The T/C (dose: 10.0 mg/kg/injection, schedule: Q04DX003 (sc), vehicle: water) was 26 % of control.
As for `O=c1s[se]c2ccccc12`, the T/C is, setting by setting: under setting [3], 66 % of control; under setting [4], 59 % of control.
As for `CCCCCCCCCCS(=O)CC(CO)NC(=O)/C=C/c1c(C)[nH]c(=O)[nH]c1=O` (centres undefined), the T/C by setting is: (dose: 9.38 mg/kg/injection, schedule: Q04DX003 (sc), vehicle: distilled water + Tween-80) 108 % of control; (dose: 18.75 mg/kg/injection, schedule: Q04DX003 (sc), vehicle: distilled water + Tween-80) 124 % of control.
For the molecule `O=CC(NC(=O)N(CCCl)N=O)C(O)C(O)C(O)CO` (centres undefined), the T/C (dose: 1.5 mg/kg/injection, schedule: Q01DX010 (sc), vehicle: Klucel (hydroxypropylcellulose) (HPC)) was 208 % of control; the T/C (dose: 6.0 mg/kg/injection, schedule: Q01DX010 (sc), vehicle: Klucel (hydroxypropylcellulose) (HPC)) is 20 % of control and 45 % of control; the T/C (dose: 12.0 mg/kg/injection, schedule: Q01DX010 (sc), vehicle: Klucel (hydroxypropylcellulose) (HPC)) is -23 % of control.
For `COC1C(CO)OC(n2cnc3c(=S)nc(N)[nH]c32)C1O` (centres undefined), the T/C runs as follows: under setting [3], 118 % of control; under setting [4], 110 % of control; (dose: 300.0 mg/kg/injection, schedule: Q04DX003 (sc), vehicle: Klucel (hydroxypropylcellulose) (HPC)) 86 % of control; (dose: 600.0 mg/kg/injection, schedule: Q04DX003 (sc), vehicle: Klucel (hydroxypropylcellulose) (HPC)) 66 % of control.
Consider `C/C=C1\C[C@@H]2C(OC)Nc3cc(O)c(OC)cc3C(=O)N2C1` (some centres undefined), for which the T/C runs as follows: (dose: 0.5 mg/kg/injection, schedule: Q04DX003 (sc), vehicle: saline) 93 % of control; (dose: 1.0 mg/kg/injection, schedule: Q04DX003 (sc), vehicle: saline) 111 % of control; (dose: 2.0 mg/kg/injection, schedule: Q04DX003 (sc), vehicle: saline) 107 % of control; under setting [5], 96 % of control.
As for `COC1OC(CO)C(O)C(NC(=O)N(C)N=O)C1O` (centres undefined), the T/C was 31 % of control (dose: 800.0 mg/kg/injection, schedule: Q04DX003 (sc), vehicle: saline) and -100 % of control (dose: 900.0 mg/kg/injection, schedule: Q04DX003 (sc), vehicle: saline).
For the molecule `C[Si](C)(CCl)N[Si](C)(C)CCl`, under setting [6], the T/C is 81 % of control.
With `Cc1ccc(C(=O)[O][Hg][CH2]C2COC([CH2][Hg][O]C(=O)c3ccc(C)cc3)CO2)cc1` (centres undefined), the T/C by setting is: (dose: 25.0 mg/kg/injection, schedule: Q01DX010 (sc), vehicle: Klucel (hydroxypropylcellulose) (HPC)) 89 % of control; (dose: 50.0 mg/kg/injection, schedule: Q01DX010 (sc), vehicle: Klucel (hydroxypropylcellulose) (HPC)) 58 % of control; (dose: 100.0 mg/kg/injection, schedule: Q01DX010 (sc), vehicle: Klucel (hydroxypropylcellulose) (HPC)) 112 % of control; (dose: 200.0 mg/kg/injection, schedule: Q01DX010 (sc), vehicle: Klucel (hydroxypropylcellulose) (HPC)) 63 % of control.
In the case of `O=[N+]([O-])c1ccc(Sc2ccncn2)c([N+](=O)[O-])c1`, the T/C is, setting by setting: under setting [7], 104 % of control; (dose: 600.0 mg/kg/injection, schedule: Q04DX003 (sc), vehicle: saline with Tween-80) 105 % of control; under setting [6], 98 % of control.
For `c1cc(-c2cc3ccc(C4=NCCN4)cc3[nH]2)ccc1C1=NCCN1`, the T/C was 68 % of control (dose: 25.0 mg/kg/injection, schedule: Q04DX003 (sc), vehicle: saline); 67 % of control (dose: 50.0 mg/kg/injection, schedule: Q04DX003 (sc), vehicle: saline); 73 % of control (dose: 100.0 mg/kg/injection, schedule: Q04DX003 (sc), vehicle: saline).
As for `CCC1CC2CN(CCc3c([nH]c4ccccc34)C(C(=O)OC)(c3cc4c(cc3OC)N(C)C3C(O)(C(=O)OC)C(OC(C)=O)C5(CC)C=CCN6CCC43C65)C2)C1` (centres undefined), the T/C under setting [5] was 63 % of control and 64 % of control; the T/C (dose: 4.0 mg/kg/injection, schedule: Q04DX003 (sc), vehicle: suspension in saline) is 31 % of control and 33 % of control; the T/C (dose: 16.0 mg/kg/injection, schedule: Q04DX003 (sc), vehicle: saline) is 6 % of control and 12 % of control.
For the molecule `CN(C)C1C(=O)C(C(=O)NP(=O)(NCCCO)N(CCCl)CCCl)=C(O)C2(O)C(=O)C3=C(O)c4c(O)cccc4C(C)(O)C3CC12` (centres undefined), under setting [7], the T/C was 47 % of control.
Turning to `N[C@@H](Cc1ccc(N(CCCl)CCCl)cc1)C(=O)O`, under setting [1], the T/C is 107 % of control.
Take `O=c1[nH]cnc2[nH]ncc12`: the T/C was 88 % of control (dose: 150.0 mg/kg/injection, schedule: Q04DX003 (sc), vehicle: suspension in saline); 100 % of control (dose: 300.0 mg/kg/injection, schedule: Q04DX003 (sc), vehicle: suspension in saline); 61 % of control (dose: 600.0 mg/kg/injection, schedule: Q04DX003 (sc), vehicle: suspension in saline).
Take `CC1CC(C)CC(C)C(O)/C(C#N)=C/C=C/CC(C2CCCC2C(=O)O)OC(=O)CC(O)C(C)C1` (centres undefined): the T/C runs as follows: (dose: 6.0 mg/kg/injection, schedule: Q04DX003 (sc), vehicle: Klucel (hydroxypropylcellulose) (HPC)) 117 % of control; (dose: 12.0 mg/kg/injection, schedule: Q04DX003 (sc), vehicle: Klucel (hydroxypropylcellulose) (HPC)) 58 % of control; (dose: 24.0 mg/kg/injection, schedule: Q04DX003 (sc), vehicle: Klucel (hydroxypropylcellulose) (HPC)) 48 % of control.
As for `BrC[P+](CBr)(CBr)CBr`, the T/C (dose: 400.0 mg/kg/injection, schedule: Q04DX003 (sc), vehicle: saline with Tween-80) is 156 % of control.
